From article PMC9005681, “Use of AD Informer Set compounds to explore validity of novel targets in Alzheimer's disease pathology” (Alzheimer's & Dementia : Translational Research & Clinical …, 2022)
Values joined by “and” are separate entries in the source; they are usually repeats but may differ in a detail not shown here. Equal entries are not always repeated.

Assays:
Test in all cases: PDSP GPCR panel primary binding assays at 10 μM
[1] = target: T1, cloned human or rodent CNS receptors, channels, and transporters (PDSP panel) (Homo sapiens, UniProt P14416); conditions: D2, primary assay
T1 construct: expressed in transfected cells
T1 sequence (P14416 whole entry): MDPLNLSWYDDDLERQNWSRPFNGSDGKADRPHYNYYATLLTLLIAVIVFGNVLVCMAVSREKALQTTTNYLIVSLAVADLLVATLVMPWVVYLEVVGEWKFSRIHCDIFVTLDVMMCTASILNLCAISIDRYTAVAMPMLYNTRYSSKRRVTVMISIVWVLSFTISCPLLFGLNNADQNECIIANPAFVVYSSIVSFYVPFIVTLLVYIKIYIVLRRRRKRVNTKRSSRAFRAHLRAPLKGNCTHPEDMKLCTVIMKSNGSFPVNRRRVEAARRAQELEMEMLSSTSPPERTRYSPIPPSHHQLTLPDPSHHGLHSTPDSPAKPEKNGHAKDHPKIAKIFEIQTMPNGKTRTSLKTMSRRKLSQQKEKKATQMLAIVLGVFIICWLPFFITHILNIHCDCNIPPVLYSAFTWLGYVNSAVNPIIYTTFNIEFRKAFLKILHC
Procedure, shortened: (§1)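 Each compound is first screened once at 10 μM, in quadruplicate, for radioligand displacement. Where mean displacement passes 50%, an 11-point dose-response in triplicate follows at that target, except at H3, PBR and GABAA.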

[2] = target: T2, cloned human or rodent CNS receptors, channels, and transporters (PDSP panel) (Homo sapiens, UniProt Q01959); conditions: DAT, primary assay
T2 construct: expressed in transfected cells
T2 sequence (Q01959 whole entry): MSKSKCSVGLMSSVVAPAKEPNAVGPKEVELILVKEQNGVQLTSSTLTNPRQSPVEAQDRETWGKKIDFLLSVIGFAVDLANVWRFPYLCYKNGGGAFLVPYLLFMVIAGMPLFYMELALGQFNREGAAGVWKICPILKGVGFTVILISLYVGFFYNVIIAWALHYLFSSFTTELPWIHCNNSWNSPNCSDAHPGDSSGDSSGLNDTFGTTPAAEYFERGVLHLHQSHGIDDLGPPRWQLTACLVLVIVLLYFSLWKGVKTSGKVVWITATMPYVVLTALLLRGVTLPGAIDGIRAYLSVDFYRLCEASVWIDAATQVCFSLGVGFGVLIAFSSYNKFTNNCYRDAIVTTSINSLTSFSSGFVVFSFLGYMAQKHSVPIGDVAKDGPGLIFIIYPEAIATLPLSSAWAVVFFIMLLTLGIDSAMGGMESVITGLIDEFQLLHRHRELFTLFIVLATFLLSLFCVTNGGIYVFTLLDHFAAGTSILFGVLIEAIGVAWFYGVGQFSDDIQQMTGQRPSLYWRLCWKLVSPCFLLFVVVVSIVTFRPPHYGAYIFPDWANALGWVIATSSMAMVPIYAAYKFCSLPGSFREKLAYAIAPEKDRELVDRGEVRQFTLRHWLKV
Procedure, shortened: as §1

[3] = target: T3, cloned human or rodent CNS receptors, channels, and transporters (PDSP panel) (Homo sapiens, UniProt P08912); conditions: M5, primary assay
T3 construct: expressed in transfected cells
T3 sequence (P08912 1-532): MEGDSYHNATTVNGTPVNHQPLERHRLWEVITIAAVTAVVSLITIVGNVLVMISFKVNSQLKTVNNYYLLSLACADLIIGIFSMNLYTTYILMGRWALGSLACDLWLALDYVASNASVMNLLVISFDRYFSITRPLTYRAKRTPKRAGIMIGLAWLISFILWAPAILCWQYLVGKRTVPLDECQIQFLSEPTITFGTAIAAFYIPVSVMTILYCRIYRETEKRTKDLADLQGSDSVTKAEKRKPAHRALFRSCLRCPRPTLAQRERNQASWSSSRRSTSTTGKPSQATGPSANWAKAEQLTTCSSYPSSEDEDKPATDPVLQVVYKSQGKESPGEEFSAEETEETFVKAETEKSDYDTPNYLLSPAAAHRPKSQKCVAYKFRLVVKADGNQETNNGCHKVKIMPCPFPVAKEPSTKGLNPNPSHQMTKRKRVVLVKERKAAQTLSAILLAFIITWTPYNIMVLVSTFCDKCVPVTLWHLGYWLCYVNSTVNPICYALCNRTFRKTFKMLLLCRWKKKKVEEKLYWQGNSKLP
Procedure, shortened: as §1

[4] = target: T4, cloned human or rodent CNS receptors, channels, and transporters (PDSP panel) (Homo sapiens, UniProt P35367); conditions: H1, primary assay
T4 construct: expressed in transfected cells
T4 sequence (P35367 whole entry): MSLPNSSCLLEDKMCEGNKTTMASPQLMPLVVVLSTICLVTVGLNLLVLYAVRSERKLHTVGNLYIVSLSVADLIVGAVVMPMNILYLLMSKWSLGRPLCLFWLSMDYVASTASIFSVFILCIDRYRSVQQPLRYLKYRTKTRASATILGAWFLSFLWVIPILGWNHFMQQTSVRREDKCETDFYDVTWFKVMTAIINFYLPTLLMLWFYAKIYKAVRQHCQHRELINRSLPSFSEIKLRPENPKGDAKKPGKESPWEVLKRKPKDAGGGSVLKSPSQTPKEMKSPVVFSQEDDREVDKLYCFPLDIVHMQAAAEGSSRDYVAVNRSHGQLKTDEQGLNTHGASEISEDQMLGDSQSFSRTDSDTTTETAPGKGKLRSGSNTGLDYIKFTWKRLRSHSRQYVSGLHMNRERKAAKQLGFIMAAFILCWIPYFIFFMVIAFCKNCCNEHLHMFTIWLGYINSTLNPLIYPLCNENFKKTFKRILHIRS
Procedure, shortened: as §1

[5] = target: T5, cloned human or rodent CNS receptors, channels, and transporters (PDSP panel) (Homo sapiens, UniProt P28566); conditions: 5-HT1E, primary assay
T5 construct: expressed in transfected cells
T5 sequence (P28566 whole entry): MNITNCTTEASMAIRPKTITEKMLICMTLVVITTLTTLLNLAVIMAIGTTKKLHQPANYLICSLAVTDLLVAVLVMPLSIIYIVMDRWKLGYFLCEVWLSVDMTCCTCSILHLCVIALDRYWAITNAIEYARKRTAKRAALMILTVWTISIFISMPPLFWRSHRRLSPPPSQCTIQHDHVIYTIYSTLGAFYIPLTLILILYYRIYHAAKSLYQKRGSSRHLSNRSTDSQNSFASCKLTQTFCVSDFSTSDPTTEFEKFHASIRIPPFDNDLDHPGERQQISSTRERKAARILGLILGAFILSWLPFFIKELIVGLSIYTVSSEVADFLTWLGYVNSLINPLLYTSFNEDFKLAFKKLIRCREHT
Procedure, shortened: as §1

[6] = tested on: cloned human or rodent CNS receptors, channels, and transporters (PDSP panel); conditions: primary assay; for Mean %: mean inhibition; for Inhibition 1: replicate 1; for Inhibition 2: replicate 2; for Inhibition 3: replicate 3; for Inhibition 4: replicate 4
Procedure, shortened: as §1

[7] = target: T6, cloned human or rodent CNS receptors, channels, and transporters (PDSP panel) (Homo sapiens, UniProt P35372); conditions: MOR, primary assay
T6 construct: expressed in transfected cells
T6 sequence (P35372 whole entry): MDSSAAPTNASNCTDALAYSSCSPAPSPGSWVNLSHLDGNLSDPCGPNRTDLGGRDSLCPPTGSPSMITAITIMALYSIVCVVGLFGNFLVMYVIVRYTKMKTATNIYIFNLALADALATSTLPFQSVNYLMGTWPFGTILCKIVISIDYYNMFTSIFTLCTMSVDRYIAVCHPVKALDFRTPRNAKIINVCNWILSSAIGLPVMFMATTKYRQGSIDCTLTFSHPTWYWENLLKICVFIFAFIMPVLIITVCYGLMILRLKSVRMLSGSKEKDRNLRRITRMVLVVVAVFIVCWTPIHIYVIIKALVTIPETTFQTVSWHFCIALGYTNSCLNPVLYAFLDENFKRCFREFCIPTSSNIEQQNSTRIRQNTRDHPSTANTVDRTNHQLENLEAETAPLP
Procedure, shortened: as §1

[8] = target: T7, cloned human or rodent CNS receptors, channels, and transporters (PDSP panel) (Homo sapiens, UniProt P20309); conditions: M3, primary assay
T7 construct: expressed in transfected cells
T7 sequence (P20309 whole entry): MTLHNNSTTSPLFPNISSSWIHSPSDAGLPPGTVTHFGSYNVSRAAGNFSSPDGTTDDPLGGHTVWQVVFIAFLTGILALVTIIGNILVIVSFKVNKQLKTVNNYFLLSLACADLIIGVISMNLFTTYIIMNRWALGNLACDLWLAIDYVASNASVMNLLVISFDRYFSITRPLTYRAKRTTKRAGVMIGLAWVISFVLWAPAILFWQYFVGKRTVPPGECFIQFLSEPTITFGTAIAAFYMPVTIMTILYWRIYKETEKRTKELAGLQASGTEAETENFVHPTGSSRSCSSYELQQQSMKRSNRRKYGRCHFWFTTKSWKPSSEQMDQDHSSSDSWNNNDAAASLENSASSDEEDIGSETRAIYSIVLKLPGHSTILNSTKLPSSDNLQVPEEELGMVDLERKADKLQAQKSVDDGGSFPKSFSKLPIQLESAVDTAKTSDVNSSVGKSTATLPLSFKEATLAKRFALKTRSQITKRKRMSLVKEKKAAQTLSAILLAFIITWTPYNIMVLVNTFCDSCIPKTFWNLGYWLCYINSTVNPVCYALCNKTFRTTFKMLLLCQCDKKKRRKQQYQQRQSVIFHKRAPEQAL
Procedure, shortened: as §1

## CNc1nc(C)nc(N[C@H]2CCC[C@@H](C(=O)NCc3ccc(C#N)cc3C(F)(F)F)C2)n1 [UNC10302679A, GSK2256294A]
[1]; mean inhibition
  Mean %: -7.22%
[1]; replicate 1
  Inhibition 1: 3.31%
[1]; replicate 2
  Inhibition 2: -5.21%
[1]; replicate 3
  Inhibition 3: -10.66%
[1]; replicate 4
  Inhibition 4: -16.31%
[2]; mean inhibition
  Mean %: 54.13%
[2]; replicate 1
  Inhibition 1: 56.61%
[2]; replicate 2
  Inhibition 2: 53.37%
[2]; replicate 3
  Inhibition 3: 54.99%
[2]; replicate 4
  Inhibition 4: 51.53%
[3]; mean inhibition
  Mean %: -6.81%
[3]; replicate 1
  Inhibition 1: 1.27%
[3]; replicate 2
  Inhibition 2: -10.6%
[3]; replicate 3
  Inhibition 3: -10.81%
[3]; replicate 4
  Inhibition 4: -7.08%
[4]; mean inhibition
  Mean %: 71.69%
[4]; replicate 1
  Inhibition 1: 93.05%
[4]; replicate 2
  Inhibition 2: 75.46%
[4]; replicate 3
  Inhibition 3: 68.14%
[4]; replicate 4
  Inhibition 4: 50.11%
[5]; mean inhibition
  Mean %: 1.71%
[5]; replicate 1
  Inhibition 1: 1.79%
[5]; replicate 2
  Inhibition 2: 6.56%
[5]; replicate 3
  Inhibition 3: 8.79%
[5]; replicate 4
  Inhibition 4: -10.29%
[6]; Alpha1A
  Mean %: -0.8%
  Inhibition 1: -1.03%
  Inhibition 2: -7.95%
  Inhibition 3: -14.5%
  Inhibition 4: 20.29%
[6]; Alpha2A
  Mean %: -5.79%
  Inhibition 1: -3.6%
  Inhibition 2: -9.38%
  Inhibition 3: -7.24%
  Inhibition 4: -2.95%
[6]; Alpha2C
  Mean %: 1.02%
  Inhibition 1: 11.32%
  Inhibition 2: 1.35%
  Inhibition 3: -11.52%
  Inhibition 4: 2.93%
[6]; BZP Rat Brain Site
  Mean %: 4.01%
  Inhibition 1: 13.82%
  Inhibition 2: 5.95%
  Inhibition 3: -2.77%
  Inhibition 4: -0.97%
[6]; DOR
  Mean %: 1.65%
  Inhibition 1: 14.12%
  Inhibition 2: -1.97%
  Inhibition 3: -1.78%
  Inhibition 4: -3.77%
[6]; GABAA
  Mean %: -6.38% and -12.1%
  Inhibition 1: -3.42% and -8.72%
  Inhibition 2: -12.29% and -15.74%
  Inhibition 3: -18.95% and -24.39%
  Inhibition 4: 9.15% and 0.47%
[6]; H3
  Mean %: 13.41%
  Inhibition 1: 10.42%
  Inhibition 2: 5.17%
  Inhibition 3: 19.16%
  Inhibition 4: 18.87%
[6]; H4
  Mean %: -11.7%
  Inhibition 1: -16.74%
  Inhibition 2: -15.78%
  Inhibition 3: -13.62%
  Inhibition 4: -0.66%
[6]; Sigma 1
  Mean %: 4.17%
[6]; Sigma 2
  Mean %: -5.66%
[7]; mean inhibition
  Mean %: -0.18%
[7]; replicate 1
  Inhibition 1: -0.8%
[7]; replicate 2
  Inhibition 2: 0.06%
[7]; replicate 3
  Inhibition 3: 1.4%
[7]; replicate 4
  Inhibition 4: -1.38%
[8]; mean inhibition
  Mean %: 1.63%
[8]; replicate 1
  Inhibition 1: 7.99%
[8]; replicate 2
  Inhibition 2: 2.67%
[8]; replicate 3
  Inhibition 3: -7.08%
[8]; replicate 4
  Inhibition 4: 2.95%
